# Experimental data from ChEMBL document CHEMBL3507680, “University of Dundee, Gates Library screen for HepG2 cell viability”.
# Values joined by “and” are separate entries in the source; they are usually repeats but may differ in a detail not shown here. Equal entries are not always repeated.
# Experiment: Human HepG2 cell viability assay in 384 well format
# Assay type: toxicity, cell-based
# Parameters: dose 125 nL, time 70.5 hour; cytotoxicity at 70.5 h: concentration not given beside the values
# Settings: for cytotoxicity at 70.5 h: HepG2 cells, read-out: Inhibition
SMILES,cytotoxicity at 70.5 h,"Inhibition (hepg2, 70.5 h, 70.5 h)"
OCC1(CCOc2ccccc2)CCCN(c2ccc(Cl)cn2)C1 (stereo not given),-2.17%,
CC(NC(=O)Cn1cc(-c2ccccc2)cn1)C1CC1 (stereo not given),-6.64%,
O=C(NCC(O)COc1ccccc1)Nc1nncs1 (stereo not given),21.4%,
CCOc1ccc(CSC(C)c2nc(C)no2)nc1 (stereo not given),-6.64%,
Cc1ccc(O)c(C(=O)N2CCOCC2c2c(C)n[nH]c2C)c1 (stereo not given),-1.53%,
CC(=O)Nc1nccn1Cc1ccccc1Cl,-2.67%,
c1cnn(CC2CN(Cc3nc(-c4ccsc4)no3)CCO2)c1 (stereo not given),-16.6%,
Cc1ccc(CN2CC[C@H]3OCC[C@@H](C(=O)NC4CC4)[C@@H]3C2)o1,18.8%,
O=C(CCc1ccccc1)N1CCCCC1C1OCCO1 (stereo not given),-3.98%,
O=C1C[C@@H]2CCN(Cc3ccccc3)C[C@@H]2CCN1C1CCCCC1,6.87%,
CCn1cc(CN2CCCN(C(=O)CCc3cnn(C)c3)CC2)cn1,-11.5%,
O=C(C1CCOCC1)N1C[C@@H](F)[C@@H](OCc2nc3cc(F)ccc3[nH]2)C1,-2.48%,
Cc1ccc(S(=O)(=O)NCCOc2ccc3nnc(C)n3n2)s1,-14.5%,
CCCc1nc(C(C)(C)NC(=O)c2ccnn2C)no1,-2.57%,
O=C(NCc1cc[nH]n1)N1CCCCC(N2CCCC2)C1 (stereo not given),-0.0102%,
CCc1ccc(C(=O)N2CCC(O)(CN3CCOCC3)C(C)(C)C2)[nH]1 (stereo not given),-9.84%,
CC(C)OCc1ncn2c1CN(CC1CC1)CCC2,20.2%,
Cc1cc(C)nc(N2CCC(c3nnc(CN(C)C)n3C3CC3)CC2)n1,-5.18%,
c1ccc(Cc2n[nH]c(C3CCOC3)n2)cc1 (stereo not given),-3.76%,
CCc1nnc(S(=O)(=O)Cc2cc(Cl)c3c(c2)OCO3)n1C,-1.18%,
CCC1CN(Cc2nc(C(C)C)no2)CCC(=O)N1Cc1ccccc1 (stereo not given),22.7%,
Cc1ncc(CN(C)C2CCCN(c3cccnn3)C2)s1 (stereo not given),-2.85%,
Cc1nc(C)n(CC2CN(Cc3cccc4ccccc34)CCO2)n1 (stereo not given),-11.6%,

SMILES,cytotoxicity at 70.5 h,"Inhibition (hepg2, 70.5 h, 70.5 h)"
O=C(c1ccoc1)N(Cc1ccncc1)C1CC1,-14%,
OC(COc1ccc(F)cc1)CN1CCC(c2ccn[nH]2)CC1 (stereo not given),-9.19%,
CC(C)CC(c1nc(-c2cnn(C)c2)no1)N1CCCCC1=O (stereo not given),-3.04%,
Cc1ccc(-n2cnc(Cl)c2CO)cc1,-3.28%,
CCn1ccnc1CN1CCCN(C(=O)Cn2nc(C)cc2C)CC1,-19.3%,
CC(C)n1cnnc1CNC(=O)c1cnn(-c2ccccc2)c1,10%,
Cc1nnc2n1CCN(C(=O)c1cc3cc(F)ccc3[nH]1)C2,-12.8%,
CN(C)CCn1c2c(ccc1=O)CCN(Cc1ccncc1)CC2,-4.6%,
NC1CCCCN(Cc2cc(C3CCCCC3)no2)C1 (stereo not given),-7.91%,
COc1ccc(Nc2nc3c(C)nn(C)c3c(=O)n2C)c(C)c1,0.529%,
Cc1cc(C2CCCN(C(=O)c3cnccn3)C2)ccn1 (stereo not given),-0.249%,
Cc1nnc(CN2CCN(C(C)c3nc(C4CC4)no3)CC2)o1 (stereo not given),-1.41%,
O[C@@H]1CN(CC2=Cc3cc(Cl)ccc3OC2)CC[C@H]1N1CCCCCC1,-11%,
CCN1CC2(CCC1=O)CCN(Cc1cccc(OC(F)F)c1)CC2,20.5%,
Cc1cccc(CN2CCC(Cc3ccccc3F)CC2)n1,0.263%,
CC(C)c1nc(CN(C)C(=O)CCc2ccc3c(c2)OCO3)cs1,-9.76%,
CCC1CN(C(=O)c2ccc(O)c(C)c2)CCN1C(C)C (stereo not given),-5.22%,
CC(C)CCN(C(=O)CCn1cc(S(N)(=O)=O)cn1)C1CC1,-1.68%,
COCC(=O)NCc1cc(=O)n2c(n1)CN(Cc1nccs1)CCC2,-5.03%,
Cc1cnc(C(=O)N2CCNCC2C(=O)NCc2ccncc2)cn1 (stereo not given),3.98%,
Cc1cccc(NC(=O)CN(C)C(=O)c2ccc(-n3cccc3)nc2)n1,-4.2%,
Fc1cccc(N2CCCC3(CN(Cc4nccs4)CCO3)C2)c1 (stereo not given),-13.6%,
CC1CN(C)c2ccccc2CN1C(=O)c1cc[nH]c(=O)c1 (stereo not given),-0.482%,

SMILES,cytotoxicity at 70.5 h,"Inhibition (hepg2, 70.5 h, 70.5 h)"
Cn1cnc2cc(C(=O)NS(=O)(=O)c3ccccc3Cl)ccc21,-2.15%,
Cc1ccc(N2CCC(c3cc(Cc4ccccc4)n[nH]3)CC2)nn1,-9.6%,
Cc1ccnc(C2CCN(C(=O)c3cnn(C)c3)CC2)n1,23.3%,
O=C(Nc1ccccc1)C1CCCN(C(=O)Cn2cncn2)C1 (stereo not given),-0.859%,
CC1c2ncc(CNC(=O)C3CC3)n2CCN1Cc1ccsc1 (stereo not given),-1.59%,
N#CCC1CC(c2ccc(F)cc2)=NO1 (stereo not given),-10%,
Cn1cc(NC(=O)CCc2ccsc2)ccc1=O,-5.97%,
Cc1ccc(OCCSCCn2nc3ccccn3c2=O)cc1,-10.4%,
CCc1noc(CN2CCN(C(=O)c3ccccc3F)CC2)n1,29.8%,
CN(C)c1ccc(C(=O)N2CCCc3cc(OC(F)(F)F)ccc32)cn1,-5.84%,
CCOC(=O)c1nc(CN2CCN(C(C)C(=O)NC3CC3)CC2)cs1 (stereo not given),-9.09%,
COc1cc(O)cc2c1C(=O)CC(c1ccc(O)cc1)O2 (stereo not given),-14%,
CNC(=O)Cc1n[nH]c(-c2cncc(Br)c2)n1,27.1%,
COCCc1nc(-c2cnn3c(C)cc(C)nc23)no1,-107%,
FC(F)(F)c1ccnc(N2CCCOCC2)c1,-13.6%,
CC(C)c1nc(CN(C)C(=O)CNS(=O)(=O)c2cccs2)no1,46.6%,
CN(C)Cc1cc(C2CCN(C(=O)C3CCCNC3)CC2)nn1C (stereo not given),-5.29%,
CC(C)Cc1noc(CN2CCCN(C(=O)c3ccccc3Cl)CC2)n1,4.22%,
CCC(C)c1csc(NC(=O)c2sc(-c3nnc[nH]3)nc2C)n1 (stereo not given),-9.94%,
COc1ccccc1OC1CN(C(=O)Cc2c(C)nc3ccccn23)C1,2.44%,
Cc1ccc(-c2nnc(SCC(=O)O)n2-c2ccccc2)cc1,-10.9%,
COc1ccc(-c2cc(-c3nc(CN4CCN(C)CC4)no3)[nH]n2)cc1,-5.68%,
CC(=O)Nc1cc(C(C)(C)C)sc1C#N,-3.4%,

SMILES,cytotoxicity at 70.5 h,"Inhibition (hepg2, 70.5 h, 70.5 h)"
Cc1oncc1C(=O)N1C[C@H](OCc2ccccn2)[C@H]2OCCC[C@H]21,-11.5%,
O=C(NCC(Cc1cccc(F)c1)N1CCCC1=O)c1cnccn1 (stereo not given),0.835%,
Cc1ccc(S(N)(=O)=O)cc1C(=O)NCC1Cc2ccccc2O1 (stereo not given),-3.82%,
CCCN1CCCn2nc(CNS(=O)(=O)c3cccc(F)c3)cc2C1,-5.1%,
CCOc1ccc(-c2cc(=O)n3c(n2)CCCCC3)cc1,-5.56%,
COc1ccc2[nH]cc(C(=O)N3C[C@@H](O)[C@H](NS(C)(=O)=O)C3)c2c1,-6.21%,
CCN(CC)S(=O)(=O)NC(=O)c1cc(C)n(-c2ccccc2)n1,10.6%,
CN(Cc1cc(C(C)(C)C)n[nH]1)C(=O)c1c[nH]nc1-c1cccc(F)c1,-8%,
COCC(=O)N1CC[C@H]2[C@H]1CCN2CC(C)C,-12.6%,
Fc1ccc(F)c(CN2CCC(c3cc4ncccc4cn3)CC2)c1,4.59%,
CC(C)=CCS(=O)(=O)Cc1noc(CC(C)C)n1,-1.31%,
Clc1ccc2c(c1)C=C(CNC1CCc3ncnn3C1)CO2 (stereo not given),-7.55%,
FC(F)(F)Sc1ccc(NCc2nnc(C3CC3)o2)cc1,1.88%,
CCc1noc(CNc2cc3c(cc2Cl)OCCCO3)n1,-11%,
CCC(NC(=O)NCc1cccc(N(C)C)n1)c1nccs1 (stereo not given),32.1%,
Cc1ccc(CC(=O)N2CCc3nnc(N(C)C)cc3C2)cn1,-3.16%,
Clc1cccc(Cl)c1CNCCOc1ccccn1,11.6%,
Cc1ccc(C(=O)Nc2nn[nH]n2)s1,-0.43%,
Cc1cc(=O)n(C)cc1NC(=O)Cc1cc(F)ccc1F,2.11%,
O=C1Nc2ccccc2C12CCN(Cc1nccs1)CC2,-1.05%,
Cn1ccc(NC(=O)CN2C[C@H]3CC[C@@H]2CN(S(C)(=O)=O)C3)n1,0.433%,
CN(C)c1ncccc1CNC(=O)N1CCCC1CN1CCCCC1 (stereo not given),-32%,
Cc1csc(CNCC(C)c2nc3ccccc3o2)n1 (stereo not given),15%,

SMILES,cytotoxicity at 70.5 h,"Inhibition (hepg2, 70.5 h, 70.5 h)"
O=C(CCN1CCCC1c1cccc2c1OCCO2)N1CCCCC1 (stereo not given),-6.86%,
O=C1COc2ccc(C(=O)N3CCCC(n4ccnc4)C3)cc2N1 (stereo not given),2.98%,
Cc1nnc(Nc2cccc(C3CCCN(Cc4ncc[nH]4)C3)n2)s1 (stereo not given),14%,
O=C(O)COc1ccccc1CN1CCCC1c1ccncn1 (stereo not given),-6.02%,
NC(=O)N1CC[C@@H]2O[C@@H](COCC(=O)N3CCCC3)CC[C@@H]21,24%,
COCCCC1CCCN(C(=O)CCc2cc(O)no2)C1 (stereo not given),-1.74%,
Clc1cccc2c1CCN(Cc1nc(CC3CC3)no1)C2,-5.71%,
Cc1cc(N2CCC(NC(=O)CCC3CCCO3)CC2)nc(C)n1 (stereo not given),-5.62%,
CC1=Nc2c(c(=O)[nH]n2C2CCCCC2)C(c2ccc(C(=O)O)cc2)S1 (stereo not given),,-14.53% and -17.54%
Cn1c(CO)cnc1SC(C(=O)NC1CC1)c1ccccc1 (stereo not given),-8.64%,
CCN1CCC2(CC1)CN(C(=O)c1cccnc1)c1ccc(Cl)cc12,-10.5%,
COc1ncccc1C(=O)N1CCn2c(COCC3CC3)cnc2C1C (stereo not given),-0.554%,
CC(C)c1nccn1C(C)C(=O)NCc1noc(Cc2cccs2)n1 (stereo not given),21.9%,
Cc1noc(C)c1C(=O)N1CCCC1(C)C(=O)NC1CCCC1 (stereo not given),-10.2%,
CNC(=O)c1cn2cc(-c3ccc(F)cc3)n(CC=C(C)C)c(=O)c2n1,19.4%,
CC(C)(C)c1nnc(CSc2ccccn2)o1,-6.49%,
CCN(Cc1noc(CC(C)C)n1)C[C@]1(O)CCCN2CCCC[C@@H]21,-11.7%,
Cc1cc(C2CCC2)nc(N(C)CCc2ccccn2)n1,-5.51%,
COC(=O)C(c1cc(F)ccc1F)N(C)C(=O)c1cnc(C)cn1 (stereo not given),-9.59%,
N#Cc1ccc(Cl)cc1NCC1CCOC1 (stereo not given),-1.84%,
CCOc1ccccc1N1CCN(c2nnc(C)o2)CC1,-13.5%,
CS(=O)(=O)NCC1(c2ccccc2Br)CC1,-5.81%,
Cc1nnn2c1COCC(CNC(=O)c1ccc3[nH]ccc3c1)C2 (stereo not given),-9.06%,
